Measurements from patent US20060223819A1, “Quinoline Derivatives as NK-3 Antagonists” (GlaxoSmithKline S.P.A. & Laboratoire, priority 2000, published 2006).

| melting point | SMILES |
| --- | --- |
| 120 to 121 °C | CCOC(=O)C1CCCN(/C(=C\[N+](=O)[O-])N2CCN(Cc3c(-c4ccccc4)nc4ccccc4c3C(=O)N[C@@H](C)c3ccccc3)CC2)C1 (stereo partly drawn) [Example 15, 1-(2-Nitro-1-{4-[2-phenyl-4-((S)-1-phenyl-ethylcarbamoyl)-quinolin-3-ylmethyl]-piperazin-1-yl}-vinyl)-piperidine-3-carboxylic acid ethyl ester] |
| 154 to 158 °C | C[C@H](NC(=O)c1c(CN2CCNCC2)c(-c2ccccc2)nc2ccc(F)cc12)C1CCCCC1 [Example 24, 6-Fluoro-2-phenyl-3-piperazin-1-ylmethylquinoline-4-carboxylic acid ((S)-1-cyclohexylethyl)-amide] |
| 136 °C | C[C@H](NC(=O)c1c(CN2CCN(CC(Cc3ccccc3)C(=O)O)CC2)c(-c2ccccc2)nc2ccccc12)C1CCCCC1 (mixture of isomers) [Example 17, 2-Benzyl-3-{4-[4-((S)-1-cyclohexyl-ethylcarbamoyl)-2-phenyl-quinolin-3-ylmethyl]-piperazin-1-yl}-propionic acid] |
| 137 to 138 °C | CC(CN1CCN(Cc2c(-c3ccccc3)nc3ccccc3c2C(=O)N[C@@H](C)c2ccccc2)CC1)C(=O)O (stereo partly drawn) [Example 14, 2-Methyl-3-{4-[2-phenyl-4-((S)-1-phenyl-ethylcarbamoyl)-quinolin-3-ylmethyl]-piperazin-1-yl}-propionic acid] |
